Our source for the IC50 values is patent publication EP2520566A1, “New Pharmaceutical Compounds” (Orion Corporation, priority 2011, dated 2012).

A word on the IC50: it is the midpoint of a concentration-inhibition curve.

TRPA1, sequence (O75762 whole entry): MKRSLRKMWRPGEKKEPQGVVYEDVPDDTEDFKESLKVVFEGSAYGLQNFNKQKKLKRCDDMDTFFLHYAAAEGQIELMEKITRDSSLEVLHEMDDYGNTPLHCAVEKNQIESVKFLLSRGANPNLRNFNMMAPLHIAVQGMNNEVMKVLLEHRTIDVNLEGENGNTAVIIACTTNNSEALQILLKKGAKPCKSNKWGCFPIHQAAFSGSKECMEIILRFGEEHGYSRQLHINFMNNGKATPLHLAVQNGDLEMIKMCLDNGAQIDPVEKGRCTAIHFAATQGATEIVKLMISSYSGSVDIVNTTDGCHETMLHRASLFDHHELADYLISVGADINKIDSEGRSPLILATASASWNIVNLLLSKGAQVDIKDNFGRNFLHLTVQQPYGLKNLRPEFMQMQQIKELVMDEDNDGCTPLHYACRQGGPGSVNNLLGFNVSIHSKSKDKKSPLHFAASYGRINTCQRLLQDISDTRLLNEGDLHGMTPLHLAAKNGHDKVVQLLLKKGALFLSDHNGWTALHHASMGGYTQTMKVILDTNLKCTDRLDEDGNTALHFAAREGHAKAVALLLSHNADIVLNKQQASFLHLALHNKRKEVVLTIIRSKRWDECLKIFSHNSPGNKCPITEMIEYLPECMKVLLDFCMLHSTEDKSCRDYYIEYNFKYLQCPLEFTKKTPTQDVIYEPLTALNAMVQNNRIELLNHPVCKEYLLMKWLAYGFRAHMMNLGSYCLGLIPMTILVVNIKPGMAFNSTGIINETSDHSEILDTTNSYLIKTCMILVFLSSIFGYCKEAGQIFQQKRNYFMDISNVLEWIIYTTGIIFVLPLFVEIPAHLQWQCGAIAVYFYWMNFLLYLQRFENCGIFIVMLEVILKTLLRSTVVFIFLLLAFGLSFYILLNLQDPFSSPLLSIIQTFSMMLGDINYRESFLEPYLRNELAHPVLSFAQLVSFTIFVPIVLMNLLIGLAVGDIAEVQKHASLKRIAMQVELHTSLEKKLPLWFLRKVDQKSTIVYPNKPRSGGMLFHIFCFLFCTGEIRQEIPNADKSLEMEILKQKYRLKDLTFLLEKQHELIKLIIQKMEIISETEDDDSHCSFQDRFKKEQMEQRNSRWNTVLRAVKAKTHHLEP

In this test the target is TRPA1 (Homo sapiens, UniProt O75762). As to the kind of experiment: Determination of TRPA1 activity in vitro (TRPA1 antagonism in vitro), procedure of Wei et al., Anesthesiology 111 (2009) 147-154. The test is classed as cell-based. An excerpt:
EXPERIMENT 1: Determination of TRPA1 activity in vitro
The illustrative examples of the present invention were screened for TRPA1 activity according to a procedure described in Wei et al., Anesthesiology 111 (2009) 147-154. Table 1. TRPA1 antagonism in vitro.
`O=C(NCc1cc(C(F)(F)F)ccn1)[C@@H]1CCCN1S(=O)(=O)c1ccc(F)cc1` [Example 27, (S)-1-(4-Fluorophenylsulfonyl)-N-((4-(trifluoromethyl)pyridin-2-yl)methyl)pyrrolidine-2-carboxamide] came in with a half-inhibitory concentration (IC50) of 33.8 µM.

`CC(C)CCOc1cncc(CNC(=O)[C@@H]2CCCN2S(=O)(=O)c2ccc(F)cc2)c1` [Example 28, (S)-1-(4-Fluorophenylsulfonyl)-N-((5-(isopentyloxy)pyridin-3-yl)methyl) pyrrolidine-2-carboxamide] had an IC50 of 4.1 µM.

Turning to `CC(C)CCOc1cncc(CNC(=O)[C@@H]2C[C@@H](F)CN2S(=O)(=O)c2ccc(F)cc2)c1` [Example 29, (2S,4R)-4-Fluoro-1-(4-fluorophenylsulfonyl)-N-((5-(isopentyloxy)pyridine-3-yl)methyl)pyrrolidine-2-carboxamide], the IC50 is 13.6 µM.

`CC(C)COc1ccnc(CNC(=O)[C@@H]2CCCN2S(=O)(=O)c2ccc(F)cc2)c1` [Example 30, (S)-1-(4-Fluorophenylsulfonyl)-N-((4-isobutoxypyridin-2-yl)methyl) pyrrolidine-2-carboxamide] yielded a concentration for half-maximal inhibition (IC50) of 10.5 µM.

`CC(C)CSc1ccnc(CNC(=O)[C@@H]2CCCN2S(=O)(=O)c2ccc(F)cc2)c1` [Example 31, (S)-1-(4-Fluorophenylsulfonyl)-N-((4-(isobutylthio)pyridin-2-yl)methyl) pyrrolidine-2-carboxamide] had a half-inhibitory concentration (IC50) of 8.5 µM.

Regarding `O=C(NCc1cc(OCC(F)(F)F)ccn1)[C@@H]1CCCN1S(=O)(=O)c1ccc(F)c(F)c1` [Example 32, (S)-1-(3,4-Difluorophenylsulfonyl)-N-((4-(2,2,2-trifluoroethoxy)pyridin-2-yl)methyl)pyrrolidine-2-carboxamide], the 50% inhibitory concentration (IC50) amounted to 12.5 µM.

As for `O=C(NCc1cc(OCC(F)(F)F)ccn1)[C@@H]1CCCN1S(=O)(=O)c1cc(F)cc(F)c1` [Example 33, (S)-1-(3,5-Difluorophenylsulfonyl)-N-((4-(2,2,2-trifluoroethoxy)pyridine-2-yl)methyl)pyrrolidine-2-carboxamide], 18.5 µM corresponded to half-maximal inhibition (IC50).

`CCCc1cc(CNC(=O)[C@@H]2C[C@@H](F)CN2S(=O)(=O)c2ccccc2)ccc1C#N` [Example 34, (2S,4R)-N-(4-cyano-3-propylbenzyl)-4-fluoro-1-(phenylsulfonyl) pyrrolidine-2-carboxamide] gave an IC50 of 12.6 µM.

As for `CC(C)c1cc(CNC(=O)[C@@H]2CCCN2S(=O)(=O)c2ccccc2)ccc1C#N` [Example 35, (S)-N-(4-cyano-3-isopropylbenzyl)-1-(phenylsulfonyl)pyrrolidine-2-carboxamide], the half-maximal inhibitory concentration (IC50) was determined as 9.3 µM.

`CC(C)CSc1cc(CNC(=O)[C@@H]2C[C@@H](F)CN2S(=O)(=O)c2ccc(F)cc2)ccn1` [Example 36, (2S,4R)-4-Fluoro-1-(4-fluorophenylsulfonyl)-N-((2-(isobutylthio)pyridin-4-yl)methyl)pyrrolidine-2-carboxamide] returned a concentration for half-maximal inhibition (IC50) of 17.4 µM.

In the case of `O=C(NCc1ccc(Br)cc1)[C@@H]1CCCN1S(=O)(=O)c1ccc(F)cc1` [Example 37, (S)-N-(4-bromobenzyl)-1-(4-fluorophenylsulfonyl)pyrrolidine-2-carboxamide], half-maximal inhibition (IC50) required 11.6 µM.

The compound `CCc1ccc(CNC(=O)[C@@H]2CCCN2S(=O)(=O)c2ccc(F)cc2)cc1` [Example 38, (S)-N-(4-ethylbenzyl)-1-(4-fluorophenylsulfonyl)pyrrolidine-2-carboxamide] showed an IC50 of 16.8 µM.

Compound `CCCNc1cccc(CNC(=O)[C@@H]2CCCN2S(=O)(=O)c2ccc(F)cc2)c1` [Example 39, (S)-1-(4-Fluorophenylsulfonyl)-N-(3-(propylamino)benzyl)pyrrolidine-2-carboxamide] had an IC50 of 14.1 µM.
